{
  "source": "patent US8658363B2",
  "about": "“Cell, method, and assay kit for measuring level of aryl hydrocarbon receptor transcriptional activation” (priority 2009, dated 2014)",
  "target": "T1, Ah receptor (Rattus norvegicus, UniProt P41738)",
  "T1 construct": "pcDNA4/V5-His B was linked with the coding region of the rat Ah receptor gene; expressed in transfected cells",
  "T1 sequence (P41738 10-853)": "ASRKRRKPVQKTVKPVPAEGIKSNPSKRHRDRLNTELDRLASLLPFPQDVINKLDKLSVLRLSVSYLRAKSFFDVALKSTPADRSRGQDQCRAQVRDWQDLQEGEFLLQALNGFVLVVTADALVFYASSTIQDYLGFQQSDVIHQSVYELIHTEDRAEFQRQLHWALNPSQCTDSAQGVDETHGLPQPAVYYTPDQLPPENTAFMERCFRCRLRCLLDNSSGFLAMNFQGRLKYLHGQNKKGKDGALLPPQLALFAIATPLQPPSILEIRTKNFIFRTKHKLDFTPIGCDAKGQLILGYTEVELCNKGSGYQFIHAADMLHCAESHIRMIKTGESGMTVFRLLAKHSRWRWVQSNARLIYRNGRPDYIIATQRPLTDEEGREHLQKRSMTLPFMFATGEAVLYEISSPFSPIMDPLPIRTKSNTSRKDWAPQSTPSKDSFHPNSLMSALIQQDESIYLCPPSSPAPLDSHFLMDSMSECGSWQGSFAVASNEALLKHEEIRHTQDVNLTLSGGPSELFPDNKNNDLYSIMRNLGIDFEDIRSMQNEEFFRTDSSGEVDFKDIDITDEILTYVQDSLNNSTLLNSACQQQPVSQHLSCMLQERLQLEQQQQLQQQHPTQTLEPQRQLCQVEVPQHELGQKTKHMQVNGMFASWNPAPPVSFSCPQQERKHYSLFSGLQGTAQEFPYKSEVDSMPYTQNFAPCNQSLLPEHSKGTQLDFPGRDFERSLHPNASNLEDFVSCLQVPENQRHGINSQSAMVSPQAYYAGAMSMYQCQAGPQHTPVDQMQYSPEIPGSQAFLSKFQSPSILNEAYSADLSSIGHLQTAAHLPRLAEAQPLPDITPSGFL",
  "test": "Ah receptor transcriptional activation, luciferase reporter in recombinant N2a-SY1 cells",
  "format": "cell-based",
  "conditions": "for N2a-SY1 (magnification of activation) [signal-to-noise ratio] / N2a-SY1 (LUC) compensated value: luciferase luminescence RLU divided by absorbance of β-galactosidase: 24 hours, N2a-SY1 cells",
  "method": "The recombinant cells (N2a-SY1) produced in Example 4 were seeded on a 24-well plate with about 80,000 cells per well and then cultured in a […] medium of 10% serum for several hours to overnight.\nNext, the medium of the recombinant cell cultured in the above manner was aspirated to remove it, and DF 1:1 mediums of 10% serum which contained a 2,3,7,8-TCDD in concentrations of 0, 0.1, 1, 10, 100 and 1000 pg/mL, respectively were each dispensed in each well with 1 mL per well to culture cells. The culturing of cells was continued, the medium was removed after 24 hours and the cells were washed once with PBS 1 mL per well. Then, 200 μL per well of a PicaGene Cell Culture Lysis Reagent Luβ (manufactured by Toyo B-Net Co., Ltd.) diluted five times was added to each well, which was then allowed to stand at room temperature for 10 minutes or more to dissolve, thereby obtaining a cell extract. The obtained cell extract was frozen-stored in a freezing chamber, this frozen-stored plate was taken out of the freezing chamber, and the cell extract was fused at room temperature. 10 μL of the fused cell extract was transferred to a black 96-well plate. Then, 100 μL per well of a PicaGene (trademark) LT210 luminescence substrate solution was dispensed in each well of the plate and mixed and then, the plate was set to a Mithras LB940 Microplate Reader (manufactured by Berthold Japan K.K.) to measure a luminescence amount continuously. Separately, 10 μL of the above cell extract was transferred to a transparent 96-well plate. 150 μL of a β-galactosidase substrate solution (ONPG substrate solution) was added to each well of the plate, which was incubated at room temperature for 5 minutes, and then, 50 μL of a reaction stop solution (aqueous […] sodium carbonate solution) was added to each well. Then, the plate was set to a micro-plate reader to measure absorbance of each well at 405 nm. Using a standard curve, the absorbance was converted into the amount of β-galactosidase (ng) in the protein extract. The results are shown by a bar graph in FIG. 4, and also in Table 1 showing each value (in the table, each value is a compensated value calculated by dividing the luminescence relative light units (RLU) of luciferase by the absorbance of β-galactosidase and bB/A means the magnification of activation [signal-to-noise ratio]).\nThe stable recombinant cells (N2a-SY1) produced in Example 4 were seeded on a 24-well plate with about 80,000 cells per well and cultured in a DF 1:1 medium of 10% serum for several hours to overnight.\nNext, the medium of the recombinant cell cultured in the above manner was aspirated to remove it, and DF 1:1 mediums of 10% serum which contained PCB126 at concentrations of 0, 0.2, 2, 20, 200, 2000, and 20000 pg/mL respectively were dispensed in each well with 1 mL per well to culture cells. The culturing of cells was continued, the medium was removed after 24 hours and the cells were washed once with PBS 1 mL per well. Then, 200 μL per well of a PicaGene Cell Culture Lysis Reagent Luβ (manufactured by Toyo B-Net Co., Ltd.) diluted five times was added to each well, which was then allowed to stand at room temperature for 10 minutes or more to dissolve, thereby obtaining a cell extract. The obtained cell extract was frozen-stored in a freezing chamber, this frozen-stored plate was taken out of the freezing chamber, and the cell extract was fused at room temperature. 10 μL of the fused cell extract was transferred to a black 96-well plate. Then, 100 μL per well of a PicaGene (trademark) LT210 luminescence substrate solution was dispensed in each well of the plate and mixed and then, the plate was set to a Mithras LB940 Microplate Reader (manufactured by Berthold Japan K.K.) to measure a luminescence amount continuously. Separately, 10 μL of the above cell extract was transferred to a transparent 96-well plate. […]",
  "data": [
    {"smiles": "Clc1ccc(-c2cc(Cl)c(Cl)c(Cl)c2)cc1Cl", "note": "[PCB126]", "values": [
      {"measurement": "N2a-SY1 (magnification of activation) [signal-to-noise ratio]", "setting": "PCB126 0.2 pg/ml vs 0 pg/ml", "value": 0.91},
      {"measurement": "N2a-SY1 (LUC) compensated value: luciferase luminescence RLU divided by absorbance of β-galactosidase", "setting": "PCB126 0.2 pg/ml", "value": 1882.6},
      {"measurement": "N2a-SY1 (magnification of activation) [signal-to-noise ratio]", "setting": "PCB126 2 pg/ml vs 0 pg/ml", "value": 1.15},
      {"measurement": "N2a-SY1 (LUC) compensated value: luciferase luminescence RLU divided by absorbance of β-galactosidase", "setting": "PCB126 2 pg/ml", "value": 2388},
      {"measurement": "N2a-SY1 (magnification of activation) [signal-to-noise ratio]", "setting": "PCB126 20 pg/ml vs 0 pg/ml", "value": 1.92},
      {"measurement": "N2a-SY1 (LUC) compensated value: luciferase luminescence RLU divided by absorbance of β-galactosidase", "setting": "PCB126 20 pg/ml", "value": 3991},
      {"measurement": "N2a-SY1 (magnification of activation) [signal-to-noise ratio]", "setting": "PCB126 200 pg/ml vs 0 pg/ml", "value": 2.74},
      {"measurement": "N2a-SY1 (LUC) compensated value: luciferase luminescence RLU divided by absorbance of β-galactosidase", "setting": "PCB126 200 pg/ml", "value": 5685.8},
      {"measurement": "N2a-SY1 (magnification of activation) [signal-to-noise ratio]", "setting": "PCB126 2000 pg/ml vs 0 pg/ml", "value": 3.08},
      {"measurement": "N2a-SY1 (LUC) compensated value: luciferase luminescence RLU divided by absorbance of β-galactosidase", "setting": "PCB126 2000 pg/ml", "value": 6401.6},
      {"measurement": "N2a-SY1 (magnification of activation) [signal-to-noise ratio]", "setting": "PCB126 20000 pg/ml vs 0 pg/ml", "value": 3.02},
      {"measurement": "N2a-SY1 (LUC) compensated value: luciferase luminescence RLU divided by absorbance of β-galactosidase", "setting": "PCB126 20000 pg/ml", "value": 6264.8},
      {"measurement": "N2a-SY1 (magnification of activation) [signal-to-noise ratio]", "setting": "PCB126 200000 pg/ml vs 0 pg/ml", "value": 3.02},
      {"measurement": "N2a-SY1 (LUC) compensated value: luciferase luminescence RLU divided by absorbance of β-galactosidase", "setting": "PCB126 200000 pg/ml", "value": 6268.9}
    ]},
    {"smiles": "Clc1cc2c(cc1Cl)Oc1cc(Cl)c(Cl)cc1O2", "note": "[2,3,7,8-TCDD]", "values": [
      {"measurement": "N2a-SY1 (magnification of activation) [signal-to-noise ratio]", "setting": "2,3,7,8-TCDD 0.01 pg/ml vs 0 pg/ml", "value": "1."},
      {"measurement": "N2a-SY1 (LUC) compensated value: luciferase luminescence RLU divided by absorbance of β-galactosidase", "setting": "2,3,7,8-TCDD 0.01 pg/ml", "value": 1187.8},
      {"measurement": "N2a-SY1 (magnification of activation) [signal-to-noise ratio]", "setting": "2,3,7,8-TCDD 0.1 pg/ml vs 0 pg/ml", "value": 1.24},
      {"measurement": "N2a-SY1 (LUC) compensated value: luciferase luminescence RLU divided by absorbance of β-galactosidase", "setting": "2,3,7,8-TCDD 0.1 pg/ml", "value": 1451.5},
      {"measurement": "N2a-SY1 (magnification of activation) [signal-to-noise ratio]", "setting": "2,3,7,8-TCDD 1 pg/ml vs 0 pg/ml", "value": 1.34},
      {"measurement": "N2a-SY1 (LUC) compensated value: luciferase luminescence RLU divided by absorbance of β-galactosidase", "setting": "2,3,7,8-TCDD 1 pg/ml", "value": 1577.6},
      {"measurement": "N2a-SY1 (magnification of activation) [signal-to-noise ratio]", "setting": "2,3,7,8-TCDD 10 pg/ml vs 0 pg/ml", "value": 3.43},
      {"measurement": "N2a-SY1 (LUC) compensated value: luciferase luminescence RLU divided by absorbance of β-galactosidase", "setting": "2,3,7,8-TCDD 10 pg/ml", "value": 4029.7},
      {"measurement": "N2a-SY1 (magnification of activation) [signal-to-noise ratio]", "setting": "2,3,7,8-TCDD 100 pg/ml vs 0 pg/ml", "value": 4.88},
      {"measurement": "N2a-SY1 (LUC) compensated value: luciferase luminescence RLU divided by absorbance of β-galactosidase", "setting": "2,3,7,8-TCDD 100 pg/ml", "value": 5718.5},
      {"measurement": "N2a-SY1 (magnification of activation) [signal-to-noise ratio]", "setting": "2,3,7,8-TCDD 1000 pg/ml vs 0 pg/ml", "value": 5.22},
      {"measurement": "N2a-SY1 (LUC) compensated value: luciferase luminescence RLU divided by absorbance of β-galactosidase", "setting": "2,3,7,8-TCDD 1000 pg/ml", "value": 6132.5},
      {"measurement": "concentration in a sample that may be detected (Ah receptor transcriptional activation)", "setting": "recombinant cell of the embodiment", "value": 0.1, "unit": "pg/mL"}
    ]}
  ]
}
